From the NIST ThermoML archive (doi:10.1016/j.jct.2011.12.015)

Assays:
[1] = Crystal; DTA
[2] = Molar enthalpy of transition or fusion; settings: Crystal; DSC
[3] = molar heat capacity at constant pressure; settings: 101.33 kPa, Small sample (50 mg) DSC

CCCCOC(=O)c1ccc(O)cc1 [butyl 4-hydroxybenzoate]
Settings	Molar enthalpy of transition or fusion [kcal/mol]	Normal melting temperature [°C]
[1]	–	67.34
[2]	6.1	–

[3]
Settings	molar heat capacity at constant pressure [J/K/mol]
291.02 K, Crystal	264.15
293.6 K, Crystal	266.09
296.12 K, Crystal	268.23
298.7 K, Crystal	270.36
301.32 K, Crystal	272.5
303.91 K, Crystal	274.64
306.52 K, Crystal	276.58
309.1 K, Crystal	278.72
311.71 K, Crystal	281.05
314.32 K, Crystal	283.18
316.9 K, Crystal	285.32
319.51 K, Crystal	287.65
322.12 K, Crystal	289.79
324.73 K, Crystal	292.31
328.33 K, Crystal	296.2
329.85 K, Crystal	298.33
330.99 K, Crystal	299.89
353.41 K, Liquid	386.9
355.11 K, Liquid	388.45
356.8 K, Liquid	389.04
358.41 K, Liquid	389.81
360.1 K, Liquid	390.4
361.82 K, Liquid	391.17
363.51 K, Liquid	391.76
365.21 K, Liquid	392.53
366.81 K, Liquid	392.92
368.41 K, Liquid	393.7
370.1 K, Liquid	394.09
371.82 K, Liquid	394.67
373.51 K, Liquid	395.25
375.2 K, Liquid	395.83
376.92 K, Liquid	396.42
378.61 K, Liquid	397
379.87 K, Liquid	397.39

O=C(O)c1ccccc1 [benzoic acid]
Settings	Molar enthalpy of transition or fusion [kcal/mol]	Normal melting temperature [°C]
[1]	–	121.80
[2]	4.02	–

[3]
Settings	molar heat capacity at constant pressure [J/K/mol]
281.06 K, Crystal	137.39
287.01 K, Crystal	140.07
293.02 K, Crystal	142.88
299 K, Crystal	145.2
305.01 K, Crystal	147.4
311.02 K, Crystal	149.72
317 K, Crystal	152.16
323.03 K, Crystal	154.48
329.02 K, Crystal	156.93
335.02 K, Crystal	159.49
341.01 K, Crystal	161.93
347.02 K, Crystal	164.38
353 K, Crystal	166.7
359.01 K, Crystal	168.89
365.01 K, Crystal	171.21
369.32 K, Crystal	172.8
407.4 K, Liquid	230.44
409 K, Liquid	231.42
410.6 K, Liquid	232.15
413.2 K, Liquid	233.01
414.8 K, Liquid	233.5
416.5 K, Liquid	233.74
418 K, Liquid	233.98
419.6 K, Liquid	234.35
421.2 K, Liquid	234.72
422.8 K, Liquid	235.08
424.4 K, Liquid	235.45
426 K, Liquid	235.82
427.6 K, Liquid	236.06
429.2 K, Liquid	236.43
430.8 K, Liquid	236.79
432 K, Liquid	237.16
